# Reference: patent US20240239861A1, “GLUCAGON-RECEPTOR SELECTIVE POLYPEPTIDES AND METHODS OF USE THEREOF” (i2O Therapeutics, Inc., priority 2016, published 2024)
# *1 amine or outer side, *2 acyl side, *3 side chain or, on linkers, in order; H or OH if unused. Where a SMILES comes first, the peptide text is derived from it. Side-chain parts run from the residue outwards. [ ]: non-standard residue; d: D form. The star is where a group is joined. C18 diacid = O=C(O)CCCCCCCCCCCCCCCCC(=O)*; γGlu = O=C(O)[C@H](CCC(=O)[*:2])N[*:1]; Palmitoyl = CCCCCCCCCCCCCCCC(=O)*; AEEA = NCCOCCOCC(=O)O; Aib = CC(C)(N)C(=O)O
# Columns and labels:
# human GLP-1R = human GLP-1R (Homo sapiens, UniProt P43220); assay: Peptide-receptor mediated cAMP accumulation (LANCE Ultra cAMP) in CHO-K1 cells transfected with human GLP-1R; assay type: cell-based; conditions: Table 7; GLP-1R; read-out: GLP-1R pEC50 (converted)
# human GLP-1R, sequence (P43220 24-463): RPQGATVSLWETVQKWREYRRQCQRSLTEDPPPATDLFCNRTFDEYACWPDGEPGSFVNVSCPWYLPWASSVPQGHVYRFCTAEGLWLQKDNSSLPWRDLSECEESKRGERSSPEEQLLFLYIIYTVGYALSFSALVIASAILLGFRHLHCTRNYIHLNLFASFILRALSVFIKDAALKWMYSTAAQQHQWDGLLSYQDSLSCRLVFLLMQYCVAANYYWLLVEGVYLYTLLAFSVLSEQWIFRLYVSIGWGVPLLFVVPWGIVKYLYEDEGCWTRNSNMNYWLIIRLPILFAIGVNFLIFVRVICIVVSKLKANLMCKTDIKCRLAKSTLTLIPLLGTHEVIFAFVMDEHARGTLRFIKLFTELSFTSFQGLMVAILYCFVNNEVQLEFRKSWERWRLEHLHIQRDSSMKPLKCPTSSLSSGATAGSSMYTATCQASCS
# human GCGR = human GCGR (Homo sapiens, UniProt P47871); assay: Peptide-receptor mediated cAMP accumulation (LANCE Ultra cAMP) in CHO-K1 cells transfected with human GCGR; assay type: cell-based; conditions: read-out: GluR pEC50 (converted)
# human GCGR, sequence (P47871 26-477): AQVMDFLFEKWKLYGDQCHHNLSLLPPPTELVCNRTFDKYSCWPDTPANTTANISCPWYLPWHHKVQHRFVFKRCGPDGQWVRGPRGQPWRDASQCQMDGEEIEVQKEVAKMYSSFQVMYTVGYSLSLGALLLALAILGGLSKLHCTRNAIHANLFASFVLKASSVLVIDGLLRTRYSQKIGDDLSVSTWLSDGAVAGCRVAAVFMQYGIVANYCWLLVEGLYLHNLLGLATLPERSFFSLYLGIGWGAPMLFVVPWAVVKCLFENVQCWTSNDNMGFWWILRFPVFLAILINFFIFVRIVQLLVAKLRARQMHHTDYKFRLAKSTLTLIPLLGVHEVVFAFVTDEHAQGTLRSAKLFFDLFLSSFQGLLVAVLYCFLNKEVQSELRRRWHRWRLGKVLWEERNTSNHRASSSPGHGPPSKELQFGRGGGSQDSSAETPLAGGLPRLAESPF
Structure (SMILES),EC50 (human GLP-1R) [nM],EC50 (human GCGR) [nM]
CCCCCCCCCCCCCCCC(=O)N[C@@H](CCC(=O)NCCCC[C@H](NC(=O)[C@@H](NC(=O)[C@H](Cc1ccccc1)NC(=O)[C@H](CCC(=O)O)NC(=O)[C@H](CCC(N)=O)NC(=O)[C@H](C)NC(=O)[C@H](CO)NC(=O)[C@H](CCCCN)NC(=O)C(C)(C)NC(=O)[C@H](CC(=O)O)NC(=O)[C@H](CC(C)C)NC(=O)[C@H](Cc1ccc(O)cc1)NC(=O)[C@H](CCCCN)NC(=O)[C@H](CO)NC(=O)[C@H](Cc1ccc(O)cc1)NC(=O)[C@H](CC(=O)O)NC(=O)[C@H](CO)NC(=O)[C@@H](NC(=O)[C@H](Cc1ccccc1)NC(=O)[C@@H](NC(=O)CNC(=O)[C@H](Cc1c[nH]cn1)NC(=O)[C@H](CO)NC(=O)[C@@H](N)Cc1ccc(O)cc1)[C@@H](C)O)[C@@H](C)O)C(C)C)C(=O)N[C@@H](Cc1c[nH]c2ccccc12)C(=O)N[C@@H](CC(C)C)C(=O)N[C@@H](CCC(=O)O)C(=O)N[C@@H](CC(=O)O)C(=O)N[C@@H](CCC(=O)O)C(=O)N1CCC[C@H]1C(=O)N[C@@H](CO)C(=O)N[C@@H](CO)C(=O)NCC(=O)N[C@@H](C)C(=O)N1CCC[C@H]1C(=O)N1CCC[C@H]1C(=O)N1CCC[C@H]1C(=O)N[C@@H](CO)C(=O)O)C(=O)O [Compound B10],> 1000,0.126
CCCCCCCCCCCCCCCC(=O)N[C@@H](CCC(=O)NCCCC[C@H](NC(=O)[C@H](CC(=O)O)NC(=O)[C@H](CC(C)C)NC(=O)[C@H](Cc1ccc(O)cc1)NC(=O)[C@H](CCCCN)NC(=O)[C@H](CO)NC(=O)[C@H](Cc1ccc(O)cc1)NC(=O)[C@H](CC(=O)O)NC(=O)[C@H](CO)NC(=O)[C@@H](NC(=O)[C@H](Cc1ccccc1)NC(=O)[C@@H](NC(=O)CNC(=O)[C@H](Cc1c[nH]cn1)NC(=O)[C@H](CO)NC(=O)[C@@H](N)Cc1ccc(O)cc1)[C@@H](C)O)[C@@H](C)O)C(=O)N[C@@H](CCCCN)C(=O)N[C@@H](CO)C(=O)N[C@@H](C)C(=O)N[C@@H](CCC(N)=O)C(=O)N[C@@H](CCC(=O)O)C(=O)N[C@@H](Cc1ccccc1)C(=O)N[C@H](C(=O)NC(C)(C)C(=O)N[C@@H](Cc1c[nH]c2ccccc12)C(=O)N[C@@H](CC(C)C)C(=O)N[C@@H](CCC(=O)O)C(=O)N[C@@H](CC(=O)O)C(=O)N[C@@H](CCC(=O)O)C(=O)N1CCC[C@H]1C(=O)N[C@@H](CO)C(=O)N[C@@H](CO)C(=O)NCC(=O)N[C@@H](C)C(=O)N1CCC[C@H]1C(=O)N1CCC[C@H]1C(=O)N1CCC[C@H]1C(=O)N[C@@H](CO)C(=O)O)C(C)C)C(=O)O [Compound B11],501,0.0501
CCCCCCCCCCCCCCCC(=O)N[C@@H](CCC(=O)NCCCC[C@H](NC(=O)[C@H](CC(=O)O)NC(=O)[C@H](CO)NC(=O)[C@@H](NC(=O)[C@H](Cc1ccccc1)NC(=O)[C@@H](NC(=O)CNC(=O)[C@H](Cc1c[nH]cn1)NC(=O)[C@H](CO)NC(=O)[C@@H](N)Cc1ccc(O)cc1)[C@@H](C)O)[C@@H](C)O)C(=O)N[C@@H](CO)C(=O)N[C@@H](CCCCN)C(=O)N[C@@H](Cc1ccc(O)cc1)C(=O)N[C@@H](CC(C)C)C(=O)N[C@@H](CC(=O)O)C(=O)NC(C)(C)C(=O)N[C@@H](CCCCN)C(=O)N[C@@H](CO)C(=O)N[C@@H](C)C(=O)N[C@@H](CCC(N)=O)C(=O)N[C@@H](CCC(=O)O)C(=O)N[C@@H](Cc1ccccc1)C(=O)N[C@H](C(=O)NC(C)(C)C(=O)N[C@@H](Cc1c[nH]c2ccccc12)C(=O)N[C@@H](CC(C)C)C(=O)N[C@@H](CCC(=O)O)C(=O)N[C@@H](CC(=O)O)C(=O)N[C@@H](CCC(=O)O)C(=O)N1CCC[C@H]1C(=O)N[C@@H](CO)C(=O)N[C@@H](CO)C(=O)NCC(=O)N[C@@H](C)C(=O)N1CCC[C@H]1C(=O)N1CCC[C@H]1C(=O)N1CCC[C@H]1C(=O)N[C@@H](CO)C(=O)O)C(C)C)C(=O)O [Compound B12] (H-YSHGTFTSDK([γGlu-Palmitoyl])SKYLD[Aib]KSAQEFV[Aib]WLEDEPSSGAPPPS-OH),63.1,0.00316
CC(C)C[C@H](NC(=O)[C@H](Cc1ccc(O)cc1)NC(=O)[C@H](CCCCN)NC(=O)[C@H](CO)NC(=O)[C@H](Cc1ccc(O)cc1)NC(=O)[C@H](CC(=O)O)NC(=O)[C@H](CO)NC(=O)[C@@H](NC(=O)[C@H](Cc1ccccc1)NC(=O)[C@@H](NC(=O)CNC(=O)[C@H](Cc1c[nH]cn1)NC(=O)[C@H](CO)NC(=O)[C@@H](N)Cc1ccc(O)cc1)[C@@H](C)O)[C@@H](C)O)C(=O)N[C@@H](CC(=O)O)C(=O)NC(C)(C)C(=O)N[C@@H](CCCCN)C(=O)N[C@@H](CO)C(=O)N[C@@H](C)C(=O)N[C@@H](CCC(N)=O)C(=O)N[C@@H](CCC(=O)O)C(=O)N[C@@H](Cc1ccccc1)C(=O)N[C@H](C(=O)NC(C)(C)C(=O)N[C@@H](Cc1c[nH]c2ccccc12)C(=O)N[C@@H](CC(C)C)C(=O)N[C@@H](CCC(=O)O)C(=O)N[C@@H](CC(=O)O)C(=O)N[C@@H](CCC(=O)O)C(=O)N1CCC[C@H]1C(=O)N[C@@H](CO)C(=O)N[C@@H](CO)C(=O)N[C@@H](CCCCNC(=O)COCCOCCNC(=O)COCCOCCNC(=O)CC[C@H](NC(=O)CCCCCCCCCCCCCCCCC(=O)O)C(=O)O)C(=O)N[C@@H](C)C(=O)N1CCC[C@H]1C(=O)N1CCC[C@H]1C(=O)N1CCC[C@H]1C(=O)N[C@@H](CO)C(=O)O)C(C)C [Compound B13],> 1000,0.631
CC(C)C[C@H](NC(=O)[C@H](Cc1ccc(O)cc1)NC(=O)[C@H](CCCCN)NC(=O)[C@H](CO)NC(=O)[C@H](CCCCNC(=O)COCCOCCNC(=O)COCCOCCNC(=O)CC[C@H](NC(=O)CCCCCCCCCCCCCCCCC(=O)O)C(=O)O)NC(=O)[C@H](CC(=O)O)NC(=O)[C@H](CO)NC(=O)[C@@H](NC(=O)[C@H](Cc1ccccc1)NC(=O)[C@@H](NC(=O)CNC(=O)[C@H](Cc1c[nH]cn1)NC(=O)[C@H](CO)NC(=O)[C@@H](N)Cc1ccc(O)cc1)[C@@H](C)O)[C@@H](C)O)C(=O)N[C@@H](CC(=O)O)C(=O)NC(C)(C)C(=O)N[C@@H](CCCCN)C(=O)N[C@@H](CO)C(=O)N[C@@H](C)C(=O)N[C@@H](CCC(N)=O)C(=O)N[C@@H](CCC(=O)O)C(=O)N[C@@H](Cc1ccccc1)C(=O)N[C@H](C(=O)NC(C)(C)C(=O)N[C@@H](Cc1c[nH]c2ccccc12)C(=O)N[C@@H](CC(C)C)C(=O)N[C@@H](CCC(=O)O)C(=O)N[C@@H](CC(=O)O)C(=O)N[C@@H](CCC(=O)O)C(=O)N1CCC[C@H]1C(=O)N[C@@H](CO)C(=O)N[C@@H](CO)C(=O)NCC(=O)N[C@@H](C)C(=O)N1CCC[C@H]1C(=O)N1CCC[C@H]1C(=O)N1CCC[C@H]1C(=O)N[C@@H](CO)C(=O)O)C(C)C [Compound B16] (H-YSHGTFTSDK([AEEA-AEEA-γGlu-C18 diacid])SKYLD[Aib]KSAQEFV[Aib]WLEDEPSSGAPPPS-OH),5.01,3.16
CCCCCCCCCCCCCCCC(=O)N[C@@H](CCC(=O)NCCCC[C@H](NC(=O)[C@H](CO)NC(=O)[C@H](CO)NC(=O)[C@@H]1CCCN1C(=O)[C@H](CCC(=O)O)NC(=O)[C@H](CC(=O)O)NC(=O)[C@H](CCC(=O)O)NC(=O)[C@H](CC(C)C)NC(=O)[C@H](Cc1c[nH]c2ccccc12)NC(=O)C(C)(C)NC(=O)[C@@H](NC(=O)[C@H](Cc1ccccc1)NC(=O)[C@H](CCC(=O)O)NC(=O)[C@H](CCC(N)=O)NC(=O)[C@H](C)NC(=O)[C@H](CCCNC(=N)N)NC(=O)[C@H](CCCCN)NC(=O)C(C)(C)NC(=O)[C@H](CC(=O)O)NC(=O)[C@H](CC(C)C)NC(=O)[C@H](Cc1ccc(O)cc1)NC(=O)[C@H](CCCCN)NC(=O)[C@H](CO)NC(=O)[C@H](Cc1ccc(O)cc1)NC(=O)[C@H](CC(=O)O)NC(=O)[C@H](CO)NC(=O)[C@@H](NC(=O)[C@H](Cc1ccccc1)NC(=O)[C@@H](NC(=O)CNC(=O)[C@H](CCC(N)=O)NC(=O)[C@H](CO)NC(=O)[C@@H](N)Cc1c[nH]c2ccccc12)[C@@H](C)O)[C@@H](C)O)C(C)C)C(=O)N[C@@H](C)C(=O)N1CCC[C@H]1C(=O)N1CCC[C@H]1C(=O)N1CCC[C@H]1C(=O)N[C@@H](CO)C(=O)O)C(=O)O [Compound B17] (H-WSQGTFTSDYSKYLD[Aib]KRAQEFV[Aib]WLEDEPSSK([γGlu-Palmitoyl])APPPS-OH),> 1000,0.0316
CCCCCCCCCCCCCCCC(=O)N[C@@H](CCC(=O)NCCCC[C@H](NC(=O)[C@@H](NC(=O)[C@H](Cc1ccccc1)NC(=O)[C@H](CCC(=O)O)NC(=O)[C@H](CCC(N)=O)NC(=O)[C@H](C)NC(=O)[C@H](CCCNC(=N)N)NC(=O)[C@H](CCCCN)NC(=O)C(C)(C)NC(=O)[C@H](CC(=O)O)NC(=O)[C@H](CC(C)C)NC(=O)[C@H](Cc1ccc(O)cc1)NC(=O)[C@H](CCCCN)NC(=O)[C@H](CO)NC(=O)[C@H](Cc1ccc(O)cc1)NC(=O)[C@H](CC(=O)O)NC(=O)[C@H](CO)NC(=O)[C@@H](NC(=O)[C@H](Cc1ccccc1)NC(=O)[C@@H](NC(=O)CNC(=O)[C@H](CCC(N)=O)NC(=O)[C@H](CO)NC(=O)[C@@H](N)Cc1c[nH]c2ccccc12)[C@@H](C)O)[C@@H](C)O)C(C)C)C(=O)N[C@@H](Cc1c[nH]c2ccccc12)C(=O)N[C@@H](CC(C)C)C(=O)N[C@@H](CCC(=O)O)C(=O)N[C@@H](CC(=O)O)C(=O)N[C@@H](CCC(=O)O)C(=O)N1CCC[C@H]1C(=O)N[C@@H](CO)C(=O)N[C@@H](CO)C(=O)NCC(=O)N[C@@H](C)C(=O)N1CCC[C@H]1C(=O)N1CCC[C@H]1C(=O)N1CCC[C@H]1C(=O)N[C@@H](CO)C(=O)O)C(=O)O [Compound B18] (H-WSQGTFTSDYSKYLD[Aib]KRAQEFVK([γGlu-Palmitoyl])WLEDEPSSGAPPPS-OH),> 1000,0.0631
